Assays:
Assay type in all cases: ADME, organism-based
Set-up in all cases: dose 1 mg/kg, route intravenous
[1] = Volume of distribution at steady state in rat at 1 mg/kg, iv; conditions: in vivo, read-out: Vdss
[2] = Half life in rat at 1 mg/kg, iv; conditions: in vivo
[3] = Blood clearance in rat at 1 mg/kg, iv; conditions: whole blood

CS(=O)(=O)N(c1ccccc1)c1cc(C(=O)N[C@@H](Cc2ccccc2)[C@H](O)CNCc2cccc(C(F)(F)F)c2)cc(C2CCCC2)c1
Vd [1]: 9.3 L/kg | half-life [2]: 42 min | clearance [3]: 76 mL/min/kg

— ChEMBL document CHEMBL1208699, “BACE-1 hydroxyethylamine inhibitors using novel edge-to-face interaction with Arg-296” (Bioorg Med Chem Lett, 2010)
